Activity calls are given as the source filed them.
Biological target: T1, ATP-dependent RNA helicase DDX1 (Homo sapiens, UniProt Q92499)
T1 sequence (Q92499 whole entry): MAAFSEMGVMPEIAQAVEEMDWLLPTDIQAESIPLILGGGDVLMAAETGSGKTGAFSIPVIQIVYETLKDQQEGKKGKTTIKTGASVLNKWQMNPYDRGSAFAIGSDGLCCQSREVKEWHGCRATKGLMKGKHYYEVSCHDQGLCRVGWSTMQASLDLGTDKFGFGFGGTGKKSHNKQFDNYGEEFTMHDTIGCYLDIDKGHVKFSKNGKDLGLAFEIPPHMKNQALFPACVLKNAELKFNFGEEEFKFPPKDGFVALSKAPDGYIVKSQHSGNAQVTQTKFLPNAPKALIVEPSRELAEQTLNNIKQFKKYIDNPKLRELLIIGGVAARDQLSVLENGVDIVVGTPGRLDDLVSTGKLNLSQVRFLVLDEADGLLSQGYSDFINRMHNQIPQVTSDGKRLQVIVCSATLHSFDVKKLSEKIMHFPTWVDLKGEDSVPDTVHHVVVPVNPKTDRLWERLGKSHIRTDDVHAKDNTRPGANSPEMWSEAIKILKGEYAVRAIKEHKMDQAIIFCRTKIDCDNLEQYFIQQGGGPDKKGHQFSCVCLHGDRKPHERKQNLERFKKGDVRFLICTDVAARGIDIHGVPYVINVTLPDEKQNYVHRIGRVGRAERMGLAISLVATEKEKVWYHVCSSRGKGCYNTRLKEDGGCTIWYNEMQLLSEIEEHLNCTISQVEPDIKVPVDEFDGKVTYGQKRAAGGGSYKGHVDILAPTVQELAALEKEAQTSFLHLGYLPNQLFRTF
Conditions: not given
Note: in the data inactive means no Kd found up to 30 µM.

| Structure (SMILES) | Kd |
| --- | --- |
| CN1CCC(COc2cnc(-c3cccc(Cn4nc(-c5cccc(C#N)c5)ccc4=O)c3)nc2)CC1 [TEPOTINIB] | > 30 µM (inactive) |
| CC(=O)Nc1cccc(-n2c(=O)n(C3CC3)c(=O)c3c(Nc4ccc(I)cc4F)n(C)c(=O)c(C)c32)c1 [TRAMETINIB] | > 30 µM (inactive) |
| CCCS(=O)(=O)Nc1ccc(F)c(C(=O)c2c[nH]c3ncc(-c4ccc(Cl)cc4)cc23)c1F [VEMURAFENIB] | > 30 µM (inactive) |
| CCn1c(=O)c(-c2cc[nH]n2)cc2c(C)nc(N)nc21 [VOXTALISIB] | > 30 µM (inactive) |

Biological target: Bone morphogenetic protein receptor type-1B (Homo sapiens, UniProt O00238)
Sequence (O00238 whole entry): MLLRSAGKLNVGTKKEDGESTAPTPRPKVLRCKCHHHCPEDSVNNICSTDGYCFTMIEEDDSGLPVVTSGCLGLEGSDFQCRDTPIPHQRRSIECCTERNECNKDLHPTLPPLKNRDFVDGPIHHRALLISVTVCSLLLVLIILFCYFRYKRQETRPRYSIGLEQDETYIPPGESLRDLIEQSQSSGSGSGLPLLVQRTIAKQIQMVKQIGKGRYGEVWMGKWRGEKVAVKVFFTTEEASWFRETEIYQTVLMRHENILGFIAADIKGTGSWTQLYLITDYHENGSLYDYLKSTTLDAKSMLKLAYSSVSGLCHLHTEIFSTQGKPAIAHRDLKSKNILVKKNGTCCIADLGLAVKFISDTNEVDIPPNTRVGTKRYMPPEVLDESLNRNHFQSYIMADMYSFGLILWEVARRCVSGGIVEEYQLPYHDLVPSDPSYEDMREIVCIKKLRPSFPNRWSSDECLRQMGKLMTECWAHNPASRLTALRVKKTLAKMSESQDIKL
Conditions: not given

| Structure (SMILES) | Kd |
| --- | --- |
| CN1CCC(COc2cnc(-c3cccc(Cn4nc(-c5cccc(C#N)c5)ccc4=O)c3)nc2)CC1 [TEPOTINIB] | > 30 µM (inactive) |
| CC(=O)Nc1cccc(-n2c(=O)n(C3CC3)c(=O)c3c(Nc4ccc(I)cc4F)n(C)c(=O)c(C)c32)c1 [TRAMETINIB] | > 30 µM (inactive) |
| CCCS(=O)(=O)Nc1ccc(F)c(C(=O)c2c[nH]c3ncc(-c4ccc(Cl)cc4)cc23)c1F [VEMURAFENIB] | > 30 µM (inactive) |
| CCn1c(=O)c(-c2cc[nH]n2)cc2c(C)nc(N)nc21 [VOXTALISIB] | > 30 µM (inactive) |

Biological target: Myosin light chain kinase, smooth muscle (Homo sapiens, UniProt Q15746)
Conditions: not given

| Structure (SMILES) | Kd |
| --- | --- |
| CN1CCC(COc2cnc(-c3cccc(Cn4nc(-c5cccc(C#N)c5)ccc4=O)c3)nc2)CC1 [TEPOTINIB] | > 30 µM (inactive) |
| CC(=O)Nc1cccc(-n2c(=O)n(C3CC3)c(=O)c3c(Nc4ccc(I)cc4F)n(C)c(=O)c(C)c32)c1 [TRAMETINIB] | > 30 µM (inactive) |
| CCCS(=O)(=O)Nc1ccc(F)c(C(=O)c2c[nH]c3ncc(-c4ccc(Cl)cc4)cc23)c1F [VEMURAFENIB] | > 30 µM (inactive) |
| CCn1c(=O)c(-c2cc[nH]n2)cc2c(C)nc(N)nc21 [VOXTALISIB] | > 30 µM (inactive) |

Biological target: T2, Acyl-CoA dehydrogenase family member 11 (Homo sapiens, UniProt Q709F0)
T2 sequence (Q709F0 whole entry): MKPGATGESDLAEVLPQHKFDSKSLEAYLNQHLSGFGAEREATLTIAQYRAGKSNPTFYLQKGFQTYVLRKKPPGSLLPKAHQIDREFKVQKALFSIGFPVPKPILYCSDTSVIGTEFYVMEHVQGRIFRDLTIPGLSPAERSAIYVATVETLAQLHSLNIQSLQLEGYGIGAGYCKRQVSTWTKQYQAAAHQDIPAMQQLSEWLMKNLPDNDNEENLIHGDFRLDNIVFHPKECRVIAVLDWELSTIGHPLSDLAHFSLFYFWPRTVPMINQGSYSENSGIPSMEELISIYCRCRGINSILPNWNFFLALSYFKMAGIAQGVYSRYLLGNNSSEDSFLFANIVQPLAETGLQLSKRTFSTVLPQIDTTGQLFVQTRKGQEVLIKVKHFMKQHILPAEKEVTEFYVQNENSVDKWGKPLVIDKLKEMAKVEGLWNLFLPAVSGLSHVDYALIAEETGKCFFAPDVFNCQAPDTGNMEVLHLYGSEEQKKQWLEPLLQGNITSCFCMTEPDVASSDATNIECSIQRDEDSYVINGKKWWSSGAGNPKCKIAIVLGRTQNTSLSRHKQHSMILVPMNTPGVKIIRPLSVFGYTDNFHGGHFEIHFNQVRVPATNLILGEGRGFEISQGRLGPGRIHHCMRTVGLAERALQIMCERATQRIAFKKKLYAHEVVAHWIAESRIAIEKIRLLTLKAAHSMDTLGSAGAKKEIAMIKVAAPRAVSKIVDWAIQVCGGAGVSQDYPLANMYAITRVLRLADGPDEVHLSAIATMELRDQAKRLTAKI
Conditions: not given

| Structure (SMILES) | Kd |
| --- | --- |
| CN1CCC(COc2cnc(-c3cccc(Cn4nc(-c5cccc(C#N)c5)ccc4=O)c3)nc2)CC1 [TEPOTINIB] | > 30 µM (inactive) |
| CC(=O)Nc1cccc(-n2c(=O)n(C3CC3)c(=O)c3c(Nc4ccc(I)cc4F)n(C)c(=O)c(C)c32)c1 [TRAMETINIB] | > 30 µM (inactive) |
| CCCS(=O)(=O)Nc1ccc(F)c(C(=O)c2c[nH]c3ncc(-c4ccc(Cl)cc4)cc23)c1F [VEMURAFENIB] | > 30 µM (inactive) |
| CCn1c(=O)c(-c2cc[nH]n2)cc2c(C)nc(N)nc21 [VOXTALISIB] | > 30 µM (inactive) |

Biological target: RAC-gamma serine/threonine-protein kinase (Homo sapiens, UniProt Q9Y243)
Sequence (Q9Y243 whole entry): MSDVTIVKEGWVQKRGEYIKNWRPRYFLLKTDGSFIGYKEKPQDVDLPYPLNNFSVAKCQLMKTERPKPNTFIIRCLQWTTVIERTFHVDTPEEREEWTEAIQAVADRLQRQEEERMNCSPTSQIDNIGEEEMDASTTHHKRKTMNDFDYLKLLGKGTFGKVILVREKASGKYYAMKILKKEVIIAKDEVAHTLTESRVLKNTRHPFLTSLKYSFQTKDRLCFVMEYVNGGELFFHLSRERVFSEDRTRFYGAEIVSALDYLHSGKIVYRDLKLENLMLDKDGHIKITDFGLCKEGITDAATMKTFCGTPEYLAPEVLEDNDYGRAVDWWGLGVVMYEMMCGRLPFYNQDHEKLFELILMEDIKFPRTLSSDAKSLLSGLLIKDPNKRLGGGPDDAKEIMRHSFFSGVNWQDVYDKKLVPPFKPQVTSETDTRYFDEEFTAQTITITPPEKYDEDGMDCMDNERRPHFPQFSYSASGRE
Conditions: not given

| Structure (SMILES) | Kd |
| --- | --- |
| CN1CCC(COc2cnc(-c3cccc(Cn4nc(-c5cccc(C#N)c5)ccc4=O)c3)nc2)CC1 [TEPOTINIB] | > 30 µM (inactive) |
| CC(=O)Nc1cccc(-n2c(=O)n(C3CC3)c(=O)c3c(Nc4ccc(I)cc4F)n(C)c(=O)c(C)c32)c1 [TRAMETINIB] | > 30 µM (inactive) |
| CCCS(=O)(=O)Nc1ccc(F)c(C(=O)c2c[nH]c3ncc(-c4ccc(Cl)cc4)cc23)c1F [VEMURAFENIB] | > 30 µM (inactive) |
| CCn1c(=O)c(-c2cc[nH]n2)cc2c(C)nc(N)nc21 [VOXTALISIB] | > 30 µM (inactive) |

Biological target: Mitogen-activated protein kinase kinase kinase 20 (Homo sapiens, UniProt Q9NYL2)
Sequence (Q9NYL2 whole entry): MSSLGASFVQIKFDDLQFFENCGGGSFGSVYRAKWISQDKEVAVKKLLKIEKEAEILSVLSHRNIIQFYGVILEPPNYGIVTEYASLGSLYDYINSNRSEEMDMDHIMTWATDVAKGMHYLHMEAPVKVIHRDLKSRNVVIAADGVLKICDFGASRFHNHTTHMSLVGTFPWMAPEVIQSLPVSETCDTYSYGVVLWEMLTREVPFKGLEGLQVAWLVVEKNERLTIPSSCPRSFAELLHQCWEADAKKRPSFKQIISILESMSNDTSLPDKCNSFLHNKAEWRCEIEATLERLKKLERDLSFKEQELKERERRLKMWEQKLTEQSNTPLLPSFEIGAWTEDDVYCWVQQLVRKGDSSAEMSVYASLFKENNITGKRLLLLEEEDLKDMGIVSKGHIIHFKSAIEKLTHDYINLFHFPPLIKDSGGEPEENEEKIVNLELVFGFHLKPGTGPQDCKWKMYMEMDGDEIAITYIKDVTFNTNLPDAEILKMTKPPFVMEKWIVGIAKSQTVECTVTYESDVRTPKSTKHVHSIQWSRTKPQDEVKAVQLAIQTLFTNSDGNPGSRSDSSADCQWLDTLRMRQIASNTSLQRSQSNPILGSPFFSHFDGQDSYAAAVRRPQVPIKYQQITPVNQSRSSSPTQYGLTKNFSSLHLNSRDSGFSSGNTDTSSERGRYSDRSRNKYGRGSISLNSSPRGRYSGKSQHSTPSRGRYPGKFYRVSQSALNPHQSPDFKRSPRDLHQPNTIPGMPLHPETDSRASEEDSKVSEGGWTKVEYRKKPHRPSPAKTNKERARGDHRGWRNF
Conditions: not given

| Structure (SMILES) | Kd |
| --- | --- |
| CN1CCC(COc2cnc(-c3cccc(Cn4nc(-c5cccc(C#N)c5)ccc4=O)c3)nc2)CC1 [TEPOTINIB] | > 30 µM (inactive) |
| CC(=O)Nc1cccc(-n2c(=O)n(C3CC3)c(=O)c3c(Nc4ccc(I)cc4F)n(C)c(=O)c(C)c32)c1 [TRAMETINIB] | > 30 µM (inactive) |
| CCCS(=O)(=O)Nc1ccc(F)c(C(=O)c2c[nH]c3ncc(-c4ccc(Cl)cc4)cc23)c1F [VEMURAFENIB] | 0.316 µM (active) |
| CCn1c(=O)c(-c2cc[nH]n2)cc2c(C)nc(N)nc21 [VOXTALISIB] | > 30 µM (inactive) |

Biological target: T3, General transcription and DNA repair factor IIH helicase subunit XPD (Homo sapiens, UniProt P18074)
T3 sequence (P18074 whole entry): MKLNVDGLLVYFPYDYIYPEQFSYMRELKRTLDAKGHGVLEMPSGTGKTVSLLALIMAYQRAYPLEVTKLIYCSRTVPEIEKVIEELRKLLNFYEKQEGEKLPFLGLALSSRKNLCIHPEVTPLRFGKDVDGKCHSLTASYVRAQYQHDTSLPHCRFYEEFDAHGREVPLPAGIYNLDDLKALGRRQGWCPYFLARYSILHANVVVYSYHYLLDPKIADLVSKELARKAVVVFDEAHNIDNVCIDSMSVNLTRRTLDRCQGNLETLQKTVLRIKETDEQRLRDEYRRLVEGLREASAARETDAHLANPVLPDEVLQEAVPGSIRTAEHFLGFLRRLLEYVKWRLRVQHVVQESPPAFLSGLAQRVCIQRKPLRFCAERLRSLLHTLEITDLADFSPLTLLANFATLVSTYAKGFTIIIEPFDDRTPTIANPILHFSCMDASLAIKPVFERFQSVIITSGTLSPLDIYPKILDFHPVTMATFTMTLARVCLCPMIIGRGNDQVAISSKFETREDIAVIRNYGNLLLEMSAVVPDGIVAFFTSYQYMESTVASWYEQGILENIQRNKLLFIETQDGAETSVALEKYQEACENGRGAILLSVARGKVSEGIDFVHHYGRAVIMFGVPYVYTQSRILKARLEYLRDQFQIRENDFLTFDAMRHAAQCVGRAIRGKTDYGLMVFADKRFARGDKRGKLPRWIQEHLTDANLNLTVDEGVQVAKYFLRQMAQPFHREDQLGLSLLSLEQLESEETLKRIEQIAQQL
Conditions: read-out: Kd apparent; k-562, colo 205, sk-n-be(2) and mv-4-11

| Structure (SMILES) | Kd |
| --- | --- |
| CN1CCC(COc2cnc(-c3cccc(Cn4nc(-c5cccc(C#N)c5)ccc4=O)c3)nc2)CC1 [TEPOTINIB] | > 30 µM (inactive) |
| CC(=O)Nc1cccc(-n2c(=O)n(C3CC3)c(=O)c3c(Nc4ccc(I)cc4F)n(C)c(=O)c(C)c32)c1 [TRAMETINIB] | > 30 µM (inactive) |
| CCCS(=O)(=O)Nc1ccc(F)c(C(=O)c2c[nH]c3ncc(-c4ccc(Cl)cc4)cc23)c1F [VEMURAFENIB] | > 30 µM (inactive) |
| CCn1c(=O)c(-c2cc[nH]n2)cc2c(C)nc(N)nc21 [VOXTALISIB] | > 30 µM (inactive) |

Biological target: U5 small nuclear ribonucleoprotein 200 kDa helicase (Homo sapiens, UniProt O75643)
Sequence (O75643 whole entry): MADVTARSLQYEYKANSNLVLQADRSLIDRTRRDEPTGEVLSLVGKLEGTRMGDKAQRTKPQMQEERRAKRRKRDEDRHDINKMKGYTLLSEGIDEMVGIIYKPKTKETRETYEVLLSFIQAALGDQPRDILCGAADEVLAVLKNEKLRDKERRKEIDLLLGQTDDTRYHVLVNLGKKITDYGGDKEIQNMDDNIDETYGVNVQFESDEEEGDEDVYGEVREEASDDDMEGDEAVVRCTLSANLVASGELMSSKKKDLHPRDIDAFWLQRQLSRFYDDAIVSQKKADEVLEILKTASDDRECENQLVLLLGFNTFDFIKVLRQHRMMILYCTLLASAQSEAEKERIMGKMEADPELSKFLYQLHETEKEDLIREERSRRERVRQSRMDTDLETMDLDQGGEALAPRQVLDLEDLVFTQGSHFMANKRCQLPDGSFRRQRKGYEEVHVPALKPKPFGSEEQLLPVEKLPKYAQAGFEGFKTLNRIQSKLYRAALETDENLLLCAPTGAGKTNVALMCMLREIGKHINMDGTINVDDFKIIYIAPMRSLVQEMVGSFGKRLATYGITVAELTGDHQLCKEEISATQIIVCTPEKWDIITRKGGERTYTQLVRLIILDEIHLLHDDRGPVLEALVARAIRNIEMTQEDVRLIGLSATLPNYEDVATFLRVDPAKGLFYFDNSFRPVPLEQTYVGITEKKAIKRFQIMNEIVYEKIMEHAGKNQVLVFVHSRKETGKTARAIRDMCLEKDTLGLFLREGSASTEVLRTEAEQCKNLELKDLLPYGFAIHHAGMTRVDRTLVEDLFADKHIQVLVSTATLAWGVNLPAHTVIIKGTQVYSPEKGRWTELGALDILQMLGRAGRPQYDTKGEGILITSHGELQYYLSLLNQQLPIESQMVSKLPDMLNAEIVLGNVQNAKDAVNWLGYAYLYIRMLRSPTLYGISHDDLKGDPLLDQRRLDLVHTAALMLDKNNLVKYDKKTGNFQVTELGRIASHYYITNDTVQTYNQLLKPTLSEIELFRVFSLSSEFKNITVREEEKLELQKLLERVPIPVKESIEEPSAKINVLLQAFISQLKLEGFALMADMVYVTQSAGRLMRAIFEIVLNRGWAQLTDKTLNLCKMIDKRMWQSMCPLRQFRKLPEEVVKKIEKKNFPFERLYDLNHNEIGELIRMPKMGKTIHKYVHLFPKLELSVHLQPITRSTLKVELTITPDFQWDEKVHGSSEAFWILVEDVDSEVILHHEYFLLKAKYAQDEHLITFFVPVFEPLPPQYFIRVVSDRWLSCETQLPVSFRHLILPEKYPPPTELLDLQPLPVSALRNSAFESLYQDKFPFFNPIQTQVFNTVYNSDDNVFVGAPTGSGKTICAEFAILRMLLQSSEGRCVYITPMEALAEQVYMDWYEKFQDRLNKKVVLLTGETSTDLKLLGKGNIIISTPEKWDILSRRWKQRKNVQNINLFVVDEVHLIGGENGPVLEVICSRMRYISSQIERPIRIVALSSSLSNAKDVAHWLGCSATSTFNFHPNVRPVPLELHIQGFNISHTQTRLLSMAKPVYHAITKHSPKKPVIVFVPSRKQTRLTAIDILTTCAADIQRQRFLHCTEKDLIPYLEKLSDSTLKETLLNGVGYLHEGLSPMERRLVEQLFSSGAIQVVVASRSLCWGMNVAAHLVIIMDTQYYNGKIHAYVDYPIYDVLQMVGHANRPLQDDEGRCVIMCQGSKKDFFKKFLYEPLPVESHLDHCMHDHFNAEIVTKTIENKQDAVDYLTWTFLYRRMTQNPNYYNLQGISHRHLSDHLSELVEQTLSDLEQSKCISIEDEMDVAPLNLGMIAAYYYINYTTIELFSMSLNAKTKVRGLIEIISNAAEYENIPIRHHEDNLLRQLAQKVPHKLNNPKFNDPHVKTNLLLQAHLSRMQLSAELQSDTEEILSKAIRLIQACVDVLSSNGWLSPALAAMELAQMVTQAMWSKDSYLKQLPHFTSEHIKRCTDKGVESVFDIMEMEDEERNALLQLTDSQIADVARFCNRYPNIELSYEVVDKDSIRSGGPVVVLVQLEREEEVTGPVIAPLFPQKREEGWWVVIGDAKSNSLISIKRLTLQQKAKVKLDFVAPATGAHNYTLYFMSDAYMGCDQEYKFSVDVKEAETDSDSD
Conditions: not given

| Structure (SMILES) | Kd |
| --- | --- |
| CN1CCC(COc2cnc(-c3cccc(Cn4nc(-c5cccc(C#N)c5)ccc4=O)c3)nc2)CC1 [TEPOTINIB] | > 30 µM (inactive) |
| CC(=O)Nc1cccc(-n2c(=O)n(C3CC3)c(=O)c3c(Nc4ccc(I)cc4F)n(C)c(=O)c(C)c32)c1 [TRAMETINIB] | > 30 µM (inactive) |
| CCCS(=O)(=O)Nc1ccc(F)c(C(=O)c2c[nH]c3ncc(-c4ccc(Cl)cc4)cc23)c1F [VEMURAFENIB] | > 30 µM (inactive) |
| CCn1c(=O)c(-c2cc[nH]n2)cc2c(C)nc(N)nc21 [VOXTALISIB] | > 30 µM (inactive) |

Biological target: Mitogen-activated protein kinase 1 (Homo sapiens, UniProt P28482)
Sequence (P28482 whole entry): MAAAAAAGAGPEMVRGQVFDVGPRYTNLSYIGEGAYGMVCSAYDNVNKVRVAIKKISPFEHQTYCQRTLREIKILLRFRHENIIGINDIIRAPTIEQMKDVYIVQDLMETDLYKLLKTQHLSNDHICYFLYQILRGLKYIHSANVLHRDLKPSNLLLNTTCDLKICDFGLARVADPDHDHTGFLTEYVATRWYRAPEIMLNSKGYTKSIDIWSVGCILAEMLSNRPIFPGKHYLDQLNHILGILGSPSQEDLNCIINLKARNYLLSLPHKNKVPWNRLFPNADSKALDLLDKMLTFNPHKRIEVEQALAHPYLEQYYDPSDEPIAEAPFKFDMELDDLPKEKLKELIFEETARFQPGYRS
Conditions: not given

| Structure (SMILES) | Kd |
| --- | --- |
| CN1CCC(COc2cnc(-c3cccc(Cn4nc(-c5cccc(C#N)c5)ccc4=O)c3)nc2)CC1 [TEPOTINIB] | > 30 µM (inactive) |
| CC(=O)Nc1cccc(-n2c(=O)n(C3CC3)c(=O)c3c(Nc4ccc(I)cc4F)n(C)c(=O)c(C)c32)c1 [TRAMETINIB] | > 30 µM (inactive) |
| CCCS(=O)(=O)Nc1ccc(F)c(C(=O)c2c[nH]c3ncc(-c4ccc(Cl)cc4)cc23)c1F [VEMURAFENIB] | > 30 µM (inactive) |
| CCn1c(=O)c(-c2cc[nH]n2)cc2c(C)nc(N)nc21 [VOXTALISIB] | > 30 µM (inactive) |
